Results taken from ChEMBL document CHEMBL3045059, “Efficacy of ketoenols on insecticide resistant field populations of two-spotted spider mite Tetranychus urticae and sweet potato whitefly Bemisia tabaci from Greece” (2012).
Values after ≈ are worked out from the molar mass of the structure shown.

How the values were obtained:
Assay type in all cases: functional
Tetranychus urticae [1] = assay: Resistance ratio, ratio of LC50 for adult Tetranychus urticae (two-spotted spider mite) greenhouse population TU9 to LC50 for adult Tetranychus urticae laboratory strain SAMB measured after 48 hr
Tetranychus urticae [2] = assay: Acaricidal activity against adult Tetranychus urticae (two-spotted spider mite) laboratory strain SAMB in bean leaves assessed as mortality applied at 1 bar pressure measured after 48 hr
Tetranychus urticae [3] = assay: Resistance ratio, ratio of LC50 for adult Tetranychus urticae (two-spotted spider mite) field population TU12 to LC50 for adult Tetranychus urticae laboratory strain SAMB measured after 48 hr
Tetranychus urticae [4] = assay: Resistance ratio, ratio of LC50 for adult Tetranychus urticae (two-spotted spider mite) greenhouse population TU11 to LC50 for adult Tetranychus urticae laboratory strain SAMB measured after 48 hr
Tetranychus urticae [5] = assay: Acaricidal activity against adult Tetranychus urticae (two-spotted spider mite) greenhouse population TU7 in bean leaves assessed as mortality applied at 1 bar pressure measured after 48 hr; settings: TU7, 48 h
Tetranychus urticae [6] = assay: Acaricidal activity against adult Tetranychus urticae (two-spotted spider mite) laboratory strain GSS in bean leaves assessed as mortality applied at 1 bar pressure measured after 48 hr
Tetranychus urticae [7] = assay: Acaricidal activity against adult Tetranychus urticae (two-spotted spider mite) field population TU2 in bean leaves assessed as mortality applied at 1 bar pressure measured after 48 hr; settings: TU2, 48 h
Tetranychus urticae [8] = assay: Acaricidal activity against adult Tetranychus urticae (two-spotted spider mite) greenhouse population TU5 in bean leaves assessed as mortality applied at 1 bar pressure measured after 48 hr; settings: TU5, 48 h
Tetranychus urticae [9] = assay: Resistance ratio, ratio of LC50 for adult Tetranychus urticae (two-spotted spider mite) greenhouse population TU5 to LC50 for adult Tetranychus urticae laboratory strain SAMB measured after 48 hr
Tetranychus urticae [10] = assay: Acaricidal activity against adult Tetranychus urticae (two-spotted spider mite) greenhouse population TU11 in bean leaves assessed as mortality applied at 1 bar pressure measured after 48 hr; settings: TU11, 48 h
Tetranychus urticae [11] = assay: Resistance ratio, ratio of LC50 for adult Tetranychus urticae (two-spotted spider mite) field population TU2 to LC50 for adult Tetranychus urticae laboratory strain SAMB measured after 48 hr
Tetranychus urticae [12] = assay: Acaricidal activity against adult Tetranychus urticae (two-spotted spider mite) greenhouse population TU1 in bean leaves assessed as mortality applied at 1 bar pressure measured after 48 hr; settings: TU1, 48 h
Tetranychus urticae [13] = assay: Acaricidal activity against adult Tetranychus urticae (two-spotted spider mite) field population TU12 in bean leaves assessed as mortality applied at 1 bar pressure measured after 48 hr; settings: TU12, 48 h
Tetranychus urticae [14] = assay: Resistance ratio, ratio of LC50 for adult Tetranychus urticae (two-spotted spider mite) greenhouse population TU1 to LC50 for adult Tetranychus urticae laboratory strain SAMB measured after 48 hr
Tetranychus urticae [15] = assay: Acaricidal activity against adult Tetranychus urticae (two-spotted spider mite) field population TU4 in bean leaves assessed as mortality applied at 1 bar pressure measured after 48 hr; settings: TU4, 48 h
Tetranychus urticae [16] = assay: Resistance ratio, ratio of LC50 for adult Tetranychus urticae (two-spotted spider mite) field population TU4 to LC50 for adult Tetranychus urticae laboratory strain SAMB measured after 48 hr
Tetranychus urticae [17] = assay: Acaricidal activity against adult Tetranychus urticae (two-spotted spider mite) greenhouse population TU3 in bean leaves assessed as mortality applied at 1 bar pressure measured after 48 hr; settings: TU3, 48 h
Tetranychus urticae [18] = assay: Acaricidal activity against adult Tetranychus urticae (two-spotted spider mite) field population TU6 in bean leaves assessed as mortality applied at 1 bar pressure measured after 48 hr; settings: TU6, 48 h
Tetranychus urticae [19] = assay: Resistance ratio, ratio of LC50 for adult Tetranychus urticae (two-spotted spider mite) greenhouse population TU7 to LC50 for adult Tetranychus urticae laboratory strain SAMB measured after 48 hr
Tetranychus urticae [20] = assay: Resistance ratio, ratio of LC50 for adult Tetranychus urticae (two-spotted spider mite) greenhouse population TU3 to LC50 for adult Tetranychus urticae laboratory strain SAMB measured after 48 hr
Tetranychus urticae [21] = assay: Acaricidal activity against adult Tetranychus urticae (two-spotted spider mite) greenhouse population TU9 in bean leaves assessed as mortality applied at 1 bar pressure measured after 48 hr; settings: TU9, 48 h
Tetranychus urticae [22] = assay: Resistance ratio, ratio of LC50 for adult Tetranychus urticae (two-spotted spider mite) laboratory strain GSS to LC50 for adult Tetranychus urticae laboratory strain SAMB measured after 48 hr
Tetranychus urticae [23] = assay: Resistance ratio, ratio of LC50 for adult Tetranychus urticae (two-spotted spider mite) field population TU6 to LC50 for adult Tetranychus urticae laboratory strain SAMB measured after 48 hr
Tetranychus urticae [24] = assay: Resistance ratio, ratio of LC50 for adult Tetranychus urticae (two-spotted spider mite) greenhouse population TU11 to LC50 for adult Tetranychus urticae laboratory strain SAMB measured after 24 hr
Tetranychus urticae [25] = assay: Acaricidal activity against adult Tetranychus urticae (two-spotted spider mite) field population TU6 in bean leaves assessed as mortality applied at 1 bar pressure measured after 24 hr; settings: TU6, 24 h
Tetranychus urticae [26] = assay: Resistance ratio, ratio of LC50 for adult Tetranychus urticae (two-spotted spider mite) field population TU6 to LC50 for adult Tetranychus urticae laboratory strain SAMB measured after 24 hr
Tetranychus urticae [27] = assay: Acaricidal activity against adult Tetranychus urticae (two-spotted spider mite) greenhouse population TU1 in bean leaves assessed as mortality applied at 1 bar pressure measured after 24 hr; settings: TU1, 24 h
Tetranychus urticae [28] = assay: Resistance ratio, ratio of LC50 for adult Tetranychus urticae (two-spotted spider mite) greenhouse population TU3 to LC50 for adult Tetranychus urticae laboratory strain SAMB measured after 24 hr
Tetranychus urticae [29] = assay: Resistance ratio, ratio of LC50 for adult Tetranychus urticae (two-spotted spider mite) field population TU4 to LC50 for adult Tetranychus urticae laboratory strain SAMB measured after 24 hr
Tetranychus urticae [30] = assay: Acaricidal activity against adult Tetranychus urticae (two-spotted spider mite) greenhouse population TU5 in bean leaves assessed as mortality applied at 1 bar pressure measured after 24 hr; settings: TU5, 24 h
Tetranychus urticae [31] = assay: Acaricidal activity against adult Tetranychus urticae (two-spotted spider mite) laboratory strain GSS in bean leaves assessed as mortality applied at 1 bar pressure measured after 24 hr
Tetranychus urticae [32] = assay: Resistance ratio, ratio of LC50 for adult Tetranychus urticae (two-spotted spider mite) greenhouse population TU7 to LC50 for adult Tetranychus urticae laboratory strain SAMB measured after 24 hr
Tetranychus urticae [33] = assay: Resistance ratio, ratio of LC50 for adult Tetranychus urticae (two-spotted spider mite) greenhouse population TU5 to LC50 for adult Tetranychus urticae laboratory strain SAMB measured after 24 hr
Tetranychus urticae [34] = assay: Resistance ratio, ratio of LC50 for adult Tetranychus urticae (two-spotted spider mite) greenhouse population TU9 to LC50 for adult Tetranychus urticae laboratory strain SAMB measured after 24 hr
Tetranychus urticae [35] = assay: Acaricidal activity against adult Tetranychus urticae (two-spotted spider mite) greenhouse population TU7 in bean leaves assessed as mortality applied at 1 bar pressure measured after 24 hr; settings: TU7, 24 h
Tetranychus urticae [36] = assay: Resistance ratio, ratio of LC50 for adult Tetranychus urticae (two-spotted spider mite) greenhouse population TU1 to LC50 for adult Tetranychus urticae laboratory strain SAMB measured after 24 hr
Tetranychus urticae [37] = assay: Acaricidal activity against adult Tetranychus urticae (two-spotted spider mite) greenhouse population TU3 in bean leaves assessed as mortality applied at 1 bar pressure measured after 24 hr; settings: TU3, 24 h
Tetranychus urticae [38] = assay: Acaricidal activity against adult Tetranychus urticae (two-spotted spider mite) greenhouse population TU9 in bean leaves assessed as mortality applied at 1 bar pressure measured after 24 hr; settings: TU9, 24 h
Tetranychus urticae [39] = assay: Resistance ratio, ratio of LC50 for adult Tetranychus urticae (two-spotted spider mite) field population TU12 to LC50 for adult Tetranychus urticae laboratory strain SAMB measured after 24 hr
Tetranychus urticae [40] = assay: Resistance ratio, ratio of LC50 for adult Tetranychus urticae (two-spotted spider mite) field population TU2 to LC50 for adult Tetranychus urticae laboratory strain SAMB measured after 24 hr
Tetranychus urticae [41] = assay: Acaricidal activity against adult Tetranychus urticae (two-spotted spider mite) greenhouse population TU11 in bean leaves assessed as mortality applied at 1 bar pressure measured after 24 hr; settings: TU11, 24 h
Tetranychus urticae [42] = assay: Acaricidal activity against adult Tetranychus urticae (two-spotted spider mite) laboratory strain SAMB in bean leaves assessed as mortality applied at 1 bar pressure measured after 24 hr
Tetranychus urticae [43] = assay: Acaricidal activity against adult Tetranychus urticae (two-spotted spider mite) field population TU4 in bean leaves assessed as mortality applied at 1 bar pressure measured after 24 hr; settings: TU4, 24 h
Tetranychus urticae [44] = assay: Acaricidal activity against adult Tetranychus urticae (two-spotted spider mite) field population TU2 in bean leaves assessed as mortality applied at 1 bar pressure measured after 24 hr; settings: TU2, 24 h
Tetranychus urticae [45] = assay: Acaricidal activity against adult Tetranychus urticae (two-spotted spider mite) field population TU12 in bean leaves assessed as mortality applied at 1 bar pressure measured after 24 hr; settings: TU12, 24 h
Tetranychus urticae [46] = assay: Resistance ratio, ratio of LC50 for adult Tetranychus urticae (two-spotted spider mite) laboratory strain GSS to LC50 for adult Tetranychus urticae laboratory strain SAMB measured after 24 hr

## CCN(CC)c1nc(C)cc(OP(=S)(OC)OC)n1 [PIRIMIPHOS METHYL]
Tetranychus urticae [1]
  RatioLC50: 14
Tetranychus urticae [2]
  LC50: 18 µg/mL (≈ 59 µM)
Tetranychus urticae [3]
  RatioLC50: 4.3
Tetranychus urticae [4]
  RatioLC50: 23
Tetranychus urticae [5]
  LC50: 1330 µg/mL (≈ 4360 µM)
Tetranychus urticae [6]
  LC50: 332 µg/mL (≈ 1090 µM)
Tetranychus urticae [7]
  LC50: 225 µg/mL (≈ 737 µM)
Tetranychus urticae [8]
  LC50: 204 µg/mL (≈ 668 µM)
Tetranychus urticae [9]
  RatioLC50: 11
Tetranychus urticae [10]
  LC50: 417 µg/mL (≈ 1370 µM)
Tetranychus urticae [11]
  RatioLC50: 12
Tetranychus urticae [12]
  LC50: 248 µg/mL (≈ 812 µM)
Tetranychus urticae [13]
  LC50: 77 µg/mL (≈ 252 µM)
Tetranychus urticae [14]
  RatioLC50: 14
Tetranychus urticae [15]
  LC50: 98 µg/mL (≈ 321 µM)
Tetranychus urticae [16]
  RatioLC50: 5.5
Tetranychus urticae [17]
  LC50: 130 µg/mL (≈ 426 µM)
Tetranychus urticae [18]
  LC50: 158 µg/mL (≈ 517 µM)
Tetranychus urticae [19]
  RatioLC50: 74
Tetranychus urticae [20]
  RatioLC50: 7.3
Tetranychus urticae [21]
  LC50: 248 µg/mL (≈ 812 µM)
Tetranychus urticae [22]
  RatioLC50: 19
Tetranychus urticae [23]
  RatioLC50: 8.9

## CC(C)(C)c1ccc(CSc2cnn(C(C)(C)C)c(=O)c2Cl)cc1 [PYRIDABEN]
Tetranychus urticae [24]
  RatioLC50: 39
Tetranychus urticae [25]
  LC50: 16 µg/mL (≈ 43.8 µM)
Tetranychus urticae [26]
  RatioLC50: 2.6
Tetranychus urticae [27]
  LC50: 29 µg/mL (≈ 79.5 µM)
Tetranychus urticae [28]
  RatioLC50: 18
Tetranychus urticae [29]
  RatioLC50: 4
Tetranychus urticae [30]
  LC50: 38 µg/mL (≈ 104 µM)
Tetranychus urticae [31]
  LC50: 4.4 µg/mL (≈ 12.1 µM)
Tetranychus urticae [32]
  RatioLC50: 34
Tetranychus urticae [33]
  RatioLC50: 5.9
Tetranychus urticae [34]
  RatioLC50: 26
Tetranychus urticae [35]
  LC50: 221 µg/mL (≈ 606 µM)
Tetranychus urticae [36]
  RatioLC50: 4.5
Tetranychus urticae [37]
  LC50: 117 µg/mL (≈ 321 µM)
Tetranychus urticae [38]
  LC50: 166 µg/mL (≈ 455 µM)
Tetranychus urticae [39]
  RatioLC50: 9.8
Tetranychus urticae [40]
  RatioLC50: 11
Tetranychus urticae [41]
  LC50: 248 µg/mL (≈ 680 µM)
Tetranychus urticae [42]
  LC50: 6.4 µg/mL (≈ 17.5 µM)
Tetranychus urticae [43]
  LC50: 26 µg/mL (≈ 71.2 µM)
Tetranychus urticae [44]
  LC50: 71 µg/mL (≈ 195 µM)
Tetranychus urticae [45]
  LC50: 62 µg/mL (≈ 170 µM)
Tetranychus urticae [46]
  RatioLC50: 0.7
